Experimental data from patent publication US11492375B2, “Cyclic peptide immunomodulators” (Bristol-Myers Squibb Company, priority 2017, dated 2022).

Assays:
[1] = oral formulation ENTOCORT EC, extensive first-pass metabolism; cited from earlier work
[2] = molecular target: PD-1-Ig binding to PD-L1-TVMV-His (PD-L1-His) (Homo sapiens (Human), UniProt Q9NZQ7); test: PD-1/PD-L1 Homogenous Time-Resolved Fluorescence (HTRF) binding assay; settings: PD-1-Ig/PD-L1-His binding; value given as range class; read-out: HTRF IC50 (μM) or Range
Chain of PD-1-Ig binding to PD-L1-TVMV-His (PD-L1-His) (Q9NZQ7 other isoform, or with tags, fused parts or gaps): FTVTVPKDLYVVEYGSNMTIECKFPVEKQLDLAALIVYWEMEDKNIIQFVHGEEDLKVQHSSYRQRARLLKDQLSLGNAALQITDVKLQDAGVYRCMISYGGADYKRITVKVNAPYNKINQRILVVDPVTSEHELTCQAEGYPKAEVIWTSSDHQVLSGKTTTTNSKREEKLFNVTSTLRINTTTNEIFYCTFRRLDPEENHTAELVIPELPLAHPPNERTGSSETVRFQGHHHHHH
Excerpt: The ability of the macrocyclic peptides of the present disclosure to bind to PD-L1 was investigated using a PD-1/PD-L1 Homogenous Time-Resolved Fluorescence (HTRF) binding assay.
Homogenous Time-Resolved Fluorescence (HTRF) Assays of Binding of Soluble PD-1 to Soluble PD-L1. Soluble PD-1 and soluble PD-L1 refers to proteins with carboxyl-end truncations that remove the transmembrane-spanning regions and are fused to heterologous sequences, specifically the Fc portion of the human immunoglobuling G sequence (Ig) or the hexahistidine epitope tag (His). All binding studies were performed in an HTRF assay buffer consisting of dPBS supplemented with 0.1% (w/v) bovine serum albumin and 0.05% (v/v) Tween-20. For the PD-1-Ig/PD-L1-His binding assay, inhibitors were pre-incubated with PD-L1-His (10 nM final) for 15m in 4 μl of assay buffer, followed by addition of PD-1-Ig (20 nM final) in 1 μl of assay buffer and further incubation for 15 m. PD-L1 fusion proteins from either human, cynomologous macaques, mouse, or other species were used. HTRF detection was achieved using europium crypate-labeled anti-Ig monoclonal antibody (1 nM final) and allophycocyanin (APC) labeled anti-His monoclonal antibody (20 nM final). Antibodies were diluted in HTRF detection buffer and 5 μl was dispensed on top of binding reaction. The reaction was allowed to equilibrate for 30 minutes and signal (665 nm/620 nm ratio) was obtained using an EnVision fluorometer. Additional binding assays were established between PD-1-Ig/PD-L2-His (20 and 5 nM, respectively), CD8O-His/PD-L1-Ig (100 and 10 nM, respectively) and CD80-His/CTLA4-Ig (10 and 5 nM, respectively). Binding/competition studies between biotinylated Compound No. 71 and human PD-L1-His were performed as follows. Macrocyclic peptide inhibitors were pre-incubated with PD-L1-His (10 nM final) for 60 minutes in 4 μl of assay buffer followed by addition of biotinylated Compound No. 71 (0.5 nM final) in 1 μl of assay buffer. Binding was allowed to equilibrate for 30 minutes followed by addition of europium crypated labeled Streptavidin (2.5 pM final) and APC-labeled anti-His (20 nM final) in 5 μl of HTRF buffer. The reaction was allowed to equilibrate for 30 m and signal (665 nm/620 nm ratio) was obtained using an EnVision fluorometer.
Recombinant Proteins. Carboxyl-truncated human PD-1 (amino acids 25-167) with a C-terminal human Ig epitope tag [hPD-1 (25-167)-35-IG] and human PD-L1 (amino acids 18-239) with a C-terminal His epitope tag [hPD-L1(19-239)-tobacco vein mottling virus protease cleavage site (TVMV)-His] were expressed in HEK293T cells and purified sequentially by recombinant Protein A affinity chromatography and size exclusion chromatography. Human PD-L2-His (Sino Biologicals), CD80-His (Sino Biologicals), CTLA4-Ig (RnD Systems) were all obtained through commercial sources.

IC50 [2] | Compound | bioavailability [1]
– | CCCC1O[C@@H]2C[C@H]3[C@@H]4CCC5=CC(=O)C=C[C@]5(C)[C@H]4[C@@H](O)C[C@]3(C)[C@]2(C(=O)CO)O1 (stereo partly shown) [budesonide] | about 10%
0.1 to 2 µM | CC(C)C[C@@H]1NC(=O)[C@H](Cc2cnc[nH]2)NC(=O)[C@@H]2CCCN2C(=O)[C@H](CC(N)=O)NC(=O)[C@@H]2COCCN2C(=O)[C@H](Cc2ccc(O)cc2)NC(=O)CSC[C@H](C(=O)NCC(N)=O)NC(=O)[C@@H](C)NC(=O)C2CCC/C=C\CCC[C@@H](C(=O)N2C)N(C)C(=O)[C@H](Cc2c[nH]c3ccccc23)NC(=O)[C@H](CO)NC(=O)[C@@H](Cc2c[nH]c3ccccc23)NC(=O)[C@@H]2C[C@@H](O)CN2C1=O [Example 1105] | –
0.002 to 0.0099 µM | C[C@H]1C(=O)N[C@@H](CC(=O)O)C(=O)N2CCC[C@H]2C(=O)N[C@@H](CN)C(=O)N[C@@H](CCC(=O)O)C(=O)N2C[C@H](O)C[C@H]2C(=O)N[C@@H](Cc2c[nH]c3ccccc23)C(=O)N[C@@H](CO)C(=O)N[C@@H](Cc2c[nH]c3ccccc23)C(=O)N(C)[C@H]2CCCC/C=C\CCCC[C@@H](C(=O)N[C@@H](CCC(=O)O)C(=O)N[C@H](C(=O)NCC(N)=O)CSCC(=O)N[C@@H](Cc3ccc(O)cc3)C(=O)N1C)N(C)C2=O [Example 1111] | –
0.002 to 0.0099 µM | C[C@H]1C(=O)N[C@@H](CC(=O)O)C(=O)N2CCC[C@H]2C(=O)N[C@@H](CN)C(=O)N[C@@H](CCC(=O)O)C(=O)N2C[C@H](O)C[C@H]2C(=O)N[C@@H](Cc2c[nH]c3ccccc23)C(=O)N[C@@H](CCN)C(=O)N[C@@H](Cc2cn(CC(=O)O)c3ccccc23)C(=O)N(C)C2CCCCC/C=C\CCCC[C@@H](C(=O)N[C@@H](CCC(=O)O)C(=O)N[C@H](C(=O)NCC(N)=O)CSCC(=O)N[C@@H](Cc3ccc(O)cc3)C(=O)N1C)N(C)C2=O [Example 1122] | –
0.002 to 0.0099 µM | CN1C(=O)[C@H](Cc2csc3ccccc23)NC(=O)[C@H](CO)NC(=O)[C@H](Cc2c[nH]c3ccccc23)NC(=O)[C@@H]2C[C@@H](O)CN2C(=O)[C@H](CCC(N)=O)NC(=O)[C@H](CN)NC(=O)[C@@H]2CCCN2C(=O)[C@H](CC(=O)O)NC(=O)[C@@H]2CCCCN2C(=O)[C@H](Cc2ccc(O)cc2)NC(=O)CSC[C@@H](C(=O)NCC(N)=O)NC(=O)[C@H](CN)NC(=O)[C@@H]2CCCC/C=C\CCCC[C@H]1C(=O)N2C [Example 1119] | –
0.1 to 2 µM | CC(C)C[C@@H]1NC(=O)[C@H](Cc2cnc[nH]2)NC(=O)[C@@H]2CCCN2C(=O)[C@H](CC(N)=O)NC(=O)[C@H](C)N(C)C(=O)[C@H](Cc2ccc(O)cc2)NC(=O)CSC[C@@H](C(=O)NCC(N)=O)NC(=O)[C@H](CCCNC(=N)N)NC(=O)[C@@H]2CC/C=C\CC[C@@H](C(=O)N2C)N(C)C(=O)[C@H](Cc2c[nH]c3ccccc23)NC(=O)[C@H](CO)NC(=O)[C@H](Cc2c[nH]c3ccccc23)NC(=O)[C@@H]2C[C@@H](O)CN2C1=O [Example 1102] | –
0.01 to 0.099 µM | CC(C)C[C@@H]1NC(=O)[C@H](Cc2cnc[nH]2)NC(=O)[C@@H]2CCCN2C(=O)[C@H](CC(N)=O)NC(=O)[C@H](C)N(C)C(=O)[C@H](Cc2ccccc2)NC(=O)CSC[C@@H](C(=O)NCC(N)=O)NC(=O)[C@H](CCCNC(=N)N)NC(=O)[C@@H]2CCCC/C=C\CCCC[C@@H](C(=O)N2C)N(C)C(=O)[C@H](Cc2c[nH]c3ccccc23)NC(=O)[C@H](CO)NC(=O)[C@H](Cc2c[nH]c3ccccc23)NC(=O)CN(C)C1=O [Example 1100] | –
0.002 to 0.0099 µM | CC(C)C[C@@H]1NC(=O)[C@H](CN)NC(=O)[C@@H]2CCCN2C(=O)[C@H](CC(N)=O)NC(=O)[C@H](C)N(C)C(=O)[C@H](Cc2ccc(O)cc2)NC(=O)CSC[C@H](C(=O)NCC(N)=O)NC(=O)[C@@H](CCCNC(=N)N)NC(=O)[C@@H]2CCCC/C=C\CCCC[C@@H](C(=O)N2C)N(C)C(=O)[C@H](Cc2c[nH]c3ccccc23)NC(=O)[C@H](CO)NC(=O)[C@@H](Cc2c[nH]c3ccccc23)NC(=O)[C@@H]2C[C@@H](O)CN2C1=O [Example 1109] | –
0.01 to 0.099 µM | CC(C)C[C@@H]1NC(=O)[C@H](Cc2cnc[nH]2)NC(=O)[C@@H]2CCCN2C(=O)[C@H](CC(N)=O)NC(=O)[C@H](C)N(C)C(=O)[C@H](Cc2ccccc2)NC(=O)CSC[C@@H](C(=O)NCC(N)=O)NC(=O)[C@H](CCCNC(=N)N)NC(=O)[C@@H]2CCCCC/C=C/CCCCC[C@@H](C(=O)N2C)N(C)C(=O)[C@H](Cc2c[nH]c3ccccc23)NC(=O)[C@H](CO)NC(=O)[C@H](Cc2c[nH]c3ccccc23)NC(=O)CN(C)C1=O [Example 1002] | –
0.002 to 0.0099 µM | C[C@H]1C(=O)N[C@@H](CC(=O)O)C(=O)N2CCC[C@H]2C(=O)N[C@@H](CN)C(=O)N[C@@H](CCC(=O)O)C(=O)N2C[C@H](O)C[C@H]2C(=O)N[C@@H](Cc2c[nH]c3ccccc23)C(=O)N[C@@H](CO)C(=O)N[C@@H](Cc2c[nH]c3ccccc23)C(=O)N(C)[C@H]2CCCC/C=C\CCCC[C@@H](C(=O)N[C@@H](CCC(=O)O)C(=O)N[C@H](C(N)=O)CSCC(=O)N[C@@H](Cc3ccc(O)cc3)C(=O)N1C)N(C)C2=O [Example 1108] | –
